This is an account of results in paper PMC4640066 (Nature Communications, 2015).

The target of one test is T1, human γ-tubulin (Homo sapiens, UniProt P23258).
T1 construct: myc (C); 6His (C); made in house; host or cells: Sf21 insect cells (baculovirus)
Put plainly: Tryptophan-based drug-binding assay, γ-tubulin. Conditions: for Ratio of Kd[α/β-tubulin]/Kd[γ-tubulin]: selectivity for γ-tubulin over α/β-tubulin. How it is done: In brief, 0.7 × 10^6 cells ml^−1 were infected with the γ-tubulin baculovirus. After 48 h, cells were collected by centrifugation at […] for 10 min and flash-frozen in liquid nitrogen and stored at −80 °C. Purification was carried out as described with slight modifications. […] Imidazole (final 10 mM) was added and the lysate was centrifuged again at 192,800g for 30 min at 4 °C. […] Ni-NTA Agarose was then washed twice with wash buffer 1 (lysis buffer containing 25 mM imidazole) and wash buffer 2 (50 mM MES pH 6.6, 500 mM KCl, 5 mM MgCl2, 10% glycerol, 10 μM GTP and 1 mM DTT) containing 25 mM imidazole. γ-Tubulin was eluted with wash buffer 2 containing 200 mM imidazole.
Monomeric γ-tubulin was prepared using a size exclusion column HiLoad 16/60 Superdex 200 pre-equilibrated with gel filtration buffer (50 mM MES pH 6.6, 500 mM KCl, 5 mM MgCl2, 1 mM EGTA, 10 μM GTP and 1 mM DTT). The peak fractions representing monomeric γ-tubulin were identified by A280 and confirmed using SDS–PAGE. Protein was concentrated using a Vivaspin concentrator (Sartorius) and supplemented with 10% glycerol, following snap-freezing in liquid nitrogen and storage at −80 °C.
Gel filtration buffer for γ-tubulin purification (50 mM MES pH 6.6, 500 mM KCl, 5 mM MgCl2, 1 mM EGTA and 1 mM DTT) supplemented with 10% of glycerol was used as an assay buffer. γ-tubulin and α/β-tubulin were diluted in this assay buffer to reach a final protein concentration of 1 μM. A final concentration of 10 μM or 1 mM GTP was added to the samples. Proteins were incubated for 30 min with compounds (final DMSO concentration was 1%; 2% for AG1 and gatastatin). […] Dissociation constants were calculated from fitting curves of decreasing fluorescence (ΔFL) using the GraphPad Prizm software.

For test [1], the system named is γ-tubulin-dependent, RanQ69L-stimulated aster formation. Put plainly: RanQ69L-stimulated aster formation in M-phase Xenopus egg extracts. It is filed as biochemical. How it is done: (§1) Cytostatic factor (CSF)-arrested M phase Xenopus egg extracts (CSF extracts) were prepared. Briefly, unfertilized eggs were crushed by 10,700g centrifugation for 20 min. M phase extracts were mixed with 0.5 μM Cy3-labelled α/β-tubulin and various concentrations of compounds. After incubation for 30 min on ice, 15 μM RanQ69L, 200 sperm nuclei per μl or 5% DMSO were added and incubated for 30 min on ice. After incubation for 20 min at 20 °C (for the samples with sperm nuclei, the incubation time was 30 min), 1.5 μl sample was fixed with 1.5 μl fix solution (0.3 volume of 37% formaldehyde, 0.6 volume of 80% glycerol and 0.1 vol of 10 × MMR solution (50 mM HEPES, pH 7.8, 1 M NaCl, 20 mM KCl, 10 mM MgCl2, 20 mM CaCl2 and 1 mM EDTA)), followed by the squash fix.
(§2) Images were acquired using a microscope (Axiovert 200 M; Carl Zeiss Inc.) equipped with a plan-Apochromat × 63 NA 1.3 oil objective lens (Carl Zeiss Inc.), a Cy3 emission filter and a Cascade:1 K (Photometrics Inc.) camera, and the AxioVision software (Carl Zeiss Inc.). The aster size and fluorescence intensity were quantified using a macro written in MATLAB[41].

Test [2] has as its system DMSO-stimulated, γ-tubulin-independent aster formation. Briefly: DMSO-stimulated aster formation in M-phase Xenopus egg extracts. It is filed as biochemical. The settings on record: M-phase-arrested Xenopus egg extracts, 5% DMSO, 20 min at 20 °C. How it is done:
as §1, §2

Test [3] deals with HeLa cells. Put plainly: Spindle length of MG132-arrested metaphase cells. It is filed as cell-based, human. Conditions: 30 μM, 2 h in the presence of MG132, HeLa. How it is done: Exponentially growing HeLa cells were treated with 30 μM of gatastatin for 9 h. Cells were fixed with cold MeOH (−20 °C). Immunostaining was performed as described above using anti-α-tubulin (1:250 dilution, Santa Cruz, Cat# sc-32293) and anti-pericentrin (1:250 dilution, Abcam, Cat# ab4448) antibodies. After staining with Alexa^488-conjugated anti-mouse IgG (1:2,000 dilution, Invitrogen, Cat#A11001) and Alexa^568-conjugated anti-rabbit IgG (1:2,000 dilution, Invitrogen, Cat#A11011), cells were washed four times with PBS and mounted with PBS containing 0.1 μg ml^−1 DAPI. Spindle structure was observed under a Leica LAS AF 6000 fluorescence microscope (Leica Microsystems). Images of 41 sections at 0.251-μm intervals were collected. The position of the two pericentrin signals of mitotic cells was analysed using the ImageJ software, and then their distance was calculated.
For analysis of the length of the bipolar spindle in MG132-treated cells, HeLa cells were arrested at prometaphase with 10 μM of STLC for 15 h, followed by STLC removal by washing the cells with the medium three times to remove STLC. […]
Immunostaining was performed as described above using anti-α-tubulin (1:250 dilution, Santa Cruz, Cat# sc-32293) and anti-pericentrin (1:250 dilution, Abcam, Cat# ab4448) antibodies. Spindle structure was observed under a Leica LAS AF 6000 fluorescence microscope (Leica Microsystems). […]

For test [4], the system named is HeLa cells. Briefly: γ-Tubulin localization on centrosomes. It is filed as cell-based, human. The settings on record: interphase and mitotic HeLa cells, 6 h. How it is done:
Supplementary Figure 8. Impact of gatastatin on γ-tubulin localization in HeLa cells (a-d) γ-Tubulin localization on centrosome in gatastatin treated HeLa cells. (a) Gatatstatin-treated interphase cells (for 6 h) were analyzed. Red, green and blue in the merged image represent pericentrin, γ-tubulin and DNA, respectively. Scale bar, 5 µm. (b) The γ-tubulin signal around pericentrin in (a) was calculated using ImageJ software from 250 (control) and 166 (gatastatin) centrosomes. Error bars represent S.D. Two-tailed, un-paired Student’s t-test was used to obtain P values. (c) Gatatstatin-treated mitotic cells (for 6 h) were analyzed. Red, green and blue in the merged image represent pericentrin, γ-tubulin and DNA, respectively.
Scale bar, 5 µm. (d) The γ-tubulin signal on pericentrin in (c) was calculated using ImageJ software from 59 (control) and 98 (gatastatin) centrosomes. Error bars represent S.D. Two-tailed, un-paired Student’s t-test was used to obtain P values. γ-Tubulin and pericentrin antibodies were purchased from Sigma (GTU-88, Cat# T6557) and Abcam (Cat# ab4448), respectively.
(1 picture or pasted object on this page, not shown here)

Some results are limits rather than exact numbers.

T1 sequence (P23258 whole entry): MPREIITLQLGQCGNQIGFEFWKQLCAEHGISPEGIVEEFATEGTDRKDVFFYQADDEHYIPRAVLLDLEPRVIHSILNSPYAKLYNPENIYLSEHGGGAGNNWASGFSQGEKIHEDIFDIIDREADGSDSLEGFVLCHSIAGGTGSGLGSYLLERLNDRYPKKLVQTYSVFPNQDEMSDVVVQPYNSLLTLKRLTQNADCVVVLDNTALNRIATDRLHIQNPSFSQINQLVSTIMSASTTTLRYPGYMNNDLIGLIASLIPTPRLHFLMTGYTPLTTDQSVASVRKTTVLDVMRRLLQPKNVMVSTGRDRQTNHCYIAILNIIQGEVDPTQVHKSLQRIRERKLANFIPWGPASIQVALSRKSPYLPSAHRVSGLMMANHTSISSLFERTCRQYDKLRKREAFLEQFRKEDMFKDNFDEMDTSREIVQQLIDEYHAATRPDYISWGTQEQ

In general, Kd refers to the concentration at which binding is half-saturated. As usually defined, the IC50 is the concentration that inhibits the measured activity by half. Take `COc1cc2c(=O)c(-c3cc(OC)c4c(c3OC)OCO4)coc2cc1OCc1ccccc1` [Gatastatin, O^7-demethylbenzyl AG1]: the “Ratio of Kd[α/β-tubulin]/Kd[γ-tubulin]” value was 11.81 at human γ-tubulin and 12 at human γ-tubulin (listed as gatastatin). Moreover, the Kd at human γ-tubulin (tryptophan fluorescence decrease, 1 μM protein, mean±s.d., three independent experiments) turned out to be 3.6 ± 1.3 µM. Besides, the IC50 is 9.7 µM in test [1] (M-phase-arrested Xenopus egg extracts, 15 μM RanQ69L, 20 min at 20 °C) and over 100 µM in test [2]. For the same molecule, in test [1] (Xenopus egg extracts), the “Effect on number of RanQ69L-dependent asters” value is “without changing the number of asters”. The “Reduction of the length of the metaphase spindle compared with the control” value with HeLa cells [3] is reported as 22%. In addition, in the test on HeLa cells [4], the “γ-Tubulin localization to centrosomes” value was “not affected”.
